“Also recorded” adds a separate entry of the source. Where only a bound is given, the exact number is not on record here.

Here are results for 20 compounds from paper PMC6509406 (Chembiochem : a European journal of chemical biology, 2018).

For experiment [1], the target named is DgcA (CC3285) diguanylate cyclase (Caulobacter crescentus, UniProt Q9A3B9). Kind of experiment: FRET-based DGC activity assay, dose-response. In kind it is biochemical. The settings on record: for Hill coeff: from fitting the concentration-response curves; for remaining DGC activity of the enzyme-inhibitor-substrate complex: compound saturating concentration; for mode of modulation of DgcA activity / binding affinity towards DgcA: in words.

Experiment [2] addresses mCYPet-YcgR-mYPet c-di-GMP biosensor (PilZ protein YcgR). Conditions: cited from earlier work; for biosensor FRET response: specificity for c-di-GMP.
[3] abbreviates: IC50 (binding affinity) against DgcA, running text and figure legends.
[4] abbreviates: IC50 ± SD, Table 2, negative and silent allosteric modulators.

As to `O=C(OCC(=O)N1CCCC1=O)c1ccc2ncsc2c1` [Compound 1, [2-oxo-2-(2-oxopyrrolidin-1-yl)ethyl] 1,3-benzothiazole-6-carboxylate], the IC50 was less than 10 µM in experiment [1] (setting [3]) and 4 ± 0.2 µM in experiment [1] (IC50 ± SD, Table 1, 20 nM DgcA, 20 μM GTP, 25 °C, 1% DMSO). In experiment [1] (Table 1), the Hill coeff was 2.34 ± 0.19. The “% Activity ESI (DGC activity of the enzyme-substrate-inhibitor complex)” value in experiment [1] (Table 1, inhibitor saturation) is 1.40 ± 0.1%. Besides, in experiment [1], the “remaining DGC activity of the enzyme-inhibitor-substrate complex” value is 1.4%. Moreover, in experiment [1], the “mode of modulation of DgcA activity” value was “complete inhibition; also recorded: complete inhibitor; also recorded: complete negative allosteric modulator”.

For `O=C(OCC(=O)N1CCCC1=O)c1ccc2ncoc2c1` [Compound 1g, 2-oxo-2-(2-oxopyrrolidin-1-yl)ethyl benzo[d]oxazole-6-carboxylate], half-maximal inhibition in experiment [1] (setting [4]) (IC50) required 3.1 ± 0.7 µM. Further, the “% Activity ESI (DGC activity of the enzyme-substrate-inhibitor complex)” value in experiment [1] (Table 2, compound saturation) came out at 87.7 ± 4.2%. Moreover, in experiment [1] (Table 2), the Hill coeff is listed as 2.35 ± 0.82. In experiment [1], the “remaining DGC activity of the enzyme-inhibitor-substrate complex” value is 87.7% and the “mode of modulation of DgcA activity” value is “silent allosteric modulators; also recorded: silent allosteric regulator”.

In the case of `O=C(OCC(=O)N1CCCC1=O)c1ccccc1` [Compound 1h, 2-oxo-2-(2-oxopyrrolidin-1-yl)ethyl benzoate], in experiment [1], half-maximal activity (AC50) was put at 238 ± 72 µM, the “remaining DGC activity of the enzyme-inhibitor-substrate complex” value is listed as 118% and the “mode of modulation of DgcA activity” value is “positive modulators; also recorded: positive allosteric regulator”. In experiment [1] (Table 2, compound saturation), the “% Activity ESI (DGC activity of the enzyme-substrate-inhibitor complex)” value worked out at 117.9 ± 1.4%. In experiment [1] (Table 2), this compound had a Hill coeff of 2.02 ± 0.19.

As for `Cc1nc2ccc(C(=O)OCC(=O)N3CCCC3=O)cc2s1` [Compound 1i, 2-oxo-2-(2-oxopyrrolidin-1-yl)ethyl 2-methylbenzo[d]thiazole-6-carboxylate], inhibition in experiment [1] (setting [4]) was half-maximal at 52.9 ± 10.7 µM (IC50). Further, the “% Activity ESI (DGC activity of the enzyme-substrate-inhibitor complex)” value in experiment [1] (Table 2, compound saturation) came to 68.1 ± 8.8%. Moreover, the Hill coeff in experiment [1] (Table 2) was 2.72 ± 1.28.

For `O=C(OCC(=O)N1CCCC1=O)c1ccc2occc2c1` [Compound 1j, 2-Oxo-2-(2-oxopyrrolidin-1-yl)ethyl benzofuran-5-carboxylate], the midpoint of inhibition in experiment [1] (setting [4]), the IC50, lay at 4.4 ± 2.2 µM. In experiment [1] (Table 2, compound saturation), the “% Activity ESI (DGC activity of the enzyme-substrate-inhibitor complex)” value is 92.2 ± 0.6%. In experiment [1] (Table 2), this compound yielded a Hill coeff of 2.05 ± 0.12. In addition, in experiment [1], the “remaining DGC activity of the enzyme-inhibitor-substrate complex” value stood at 92.2% and the “mode of modulation of DgcA activity” value was “silent allosteric modulators”.

In experiment [1] (setting [4]), `O=C(OCC(=O)N1CCCC1=O)c1ccc2[nH]ccc2c1` [Compound 1k, 2-oxo-2-(2-oxopyrrolidin-1-yl)ethyl 1H-indole-5-carboxylate] yielded an IC50 of 324 ± 39 µM. Further, in experiment [1] (Table 2, compound saturation), the “% Activity ESI (DGC activity of the enzyme-substrate-inhibitor complex)” value stood at 6.3 ± 0.4%. The Hill coeff in experiment [1] (Table 2) is recorded as 2.37 ± 0.30. Besides, in experiment [1], the “binding affinity towards DgcA” value is given as “strongly reduced binding affinities” and the “mode of modulation of DgcA activity” value is recorded as “negative modulators”.

Regarding `Cn1ccc2cc(C(=O)OCC(=O)N3CCCC3=O)ccc21` [Compound 1l, 2-oxo-2-(2-oxopyrrolidin-1-yl)ethyl 1-methyl-1H-indole-5-carboxylate], in experiment [1] (setting [4]), 300 ± 37.7 µM corresponded to half-maximal inhibition (IC50). In experiment [1], the “binding affinity towards DgcA” value was “strongly reduced binding affinities” and the “mode of modulation of DgcA activity” value is recorded as “negative modulators”.

`Cn1cnc2cc(C(=O)OCC(=O)N3CCCC3=O)ccc21` [Compound 1m, 2-oxo-2-(2-oxopyrrolidin-1-yl)ethyl 1-methyl-1H-benzo[d]imidazole-5-carboxylate]: it took 82.2 ± 14.6 µM to reach half-maximal inhibition in experiment [1] (setting [4]) (IC50). This compound registered a Hill coeff in experiment [1] (Table 2) of 1.52 ± 0.28. Moreover, in experiment [1], the “binding affinity towards DgcA” value is “strongly reduced binding affinities” and the “mode of modulation of DgcA activity” value is listed as “negative modulators”.

Compound `O=C(OCC(=O)N1CCCC1=O)c1ccc2cnccc2c1` [Compound 1n, 2-oxo-2-(2-oxopyrrolidin-1-yl)ethyl isoquinoline-6-carboxylate] gave an IC50 in experiment [1] (setting [4]) of 179 ± 10.5 µM. In experiment [1] (Table 2, compound saturation), the “% Activity ESI (DGC activity of the enzyme-substrate-inhibitor complex)” value was found to be 0.0 ± 2.0%. The compound also displayed a Hill coeff in experiment [1] (Table 2) of 2.06 ± 0.15. Besides, in experiment [1], the “binding affinity towards DgcA” value is given as “strongly reduced binding affinities” and the “mode of modulation of DgcA activity” value is recorded as “negative modulators”.

In experiment [1] (setting [4]), `O=C(OCC(=O)N1CCCC1=O)c1ccc2nccnc2c1` [Compound 1o, 2-oxo-2-(2-oxopyrrolidin-1-yl)ethyl quinoxaline-6-carboxylate] gave an IC50 of 344 ± 19.9 µM. Moreover, the “% Activity ESI (DGC activity of the enzyme-substrate-inhibitor complex)” value in experiment [1] (Table 2, compound saturation) is 0.0 ± 0.7%. In experiment [1] (Table 2), this compound returned a Hill coeff of 2.22 ± 0.16. In addition, in experiment [1], the “binding affinity towards DgcA” value is listed as “strongly reduced binding affinities” and the “mode of modulation of DgcA activity” value is recorded as “negative modulators”.

Consider `O=C(OCC(=O)N1CCCC1=O)c1ccc2scnc2c1` [Compound 1p, 2-oxo-2-(2-oxopyrrolidin-1-yl)ethyl benzothiazole-5-carboxylate], for which the IC50 was found to be 626 µM in experiment [1] (setting [3]) and 627 ± 49 µM in experiment [1] (setting [4]).

`CN(C)c1ccc(C(=O)OCC(=O)N2CCCC2=O)cc1` [Compound 1q, 2-oxo-2-(2-oxopyrrolidin-1-yl)ethyl 4-(dimethylamino)benzoate]: in experiment [1], the activity was half-maximal at 222 ± 85.6 µM (AC50), the “remaining DGC activity of the enzyme-inhibitor-substrate complex” value is 176% and the “mode of modulation of DgcA activity” value is recorded as “positive modulators”. Moreover, the “% Activity ESI (DGC activity of the enzyme-substrate-inhibitor complex)” value in experiment [1] (Table 2, compound saturation) was determined as 176.1 ± 3.3%. The compound also yielded a Hill coeff in experiment [1] (Table 2) of 2.51 ± 0.68.

Turning to `O=C(OCC(=O)N1CCCC1=O)c1ccc([N+](=O)[O-])cc1` [Compound 1r, 2-oxo-2-(2-oxopyrrolidin-1-yl)ethyl 4-nitrobenzoate], in experiment [1], the activity was half-maximal at 55.5 ± 13.6 µM (AC50), the “remaining DGC activity of the enzyme-inhibitor-substrate complex” value is 156% and the “mode of modulation of DgcA activity” value is listed as “positive modulators”. Moreover, in experiment [1] (Table 2, compound saturation), the “% Activity ESI (DGC activity of the enzyme-substrate-inhibitor complex)” value was found to be 156.4 ± 1.7%. For the same compound, the Hill coeff in experiment [1] (Table 2) was determined as 2.01 ± 0.18.

Consider `O=C(NCC(=O)N1CCCC1=O)c1ccc2ncsc2c1` [Compound 1s, N-(2-oxo-2-(2-oxopyrrolidin-1-yl)ethyl)-benzo[d]thiazole-6-carboxamide], for which, in experiment [1] (setting [3]), the IC50 amounted to 31.6 µM. Moreover, in experiment [1], the “remaining DGC activity of the enzyme-inhibitor-substrate complex” value amounted to 48% and the “mode of modulation of DgcA activity” value is “partial inhibitor”.

As to `CC(OC(=O)c1ccc2ncsc2c1)C(=O)N1CCCC1=O` (stereo not drawn) [Compound 1t, 1-oxo-1-(2-oxopyrrolidin-1-yl)propan-2-yl benzo[d]thiazole-6-carboxylate], the “binding affinity towards DgcA” value in experiment [1] was “completely abolished binding affinity”.

`O=C(OCCC(=O)N1CCCC1=O)c1ccc2ncsc2c1` [Compound 1u, 3-oxo-3-(2-oxopyrrolidin-1-yl)propyl benzo[d]thiazole-6-carboxylate]: the “binding affinity towards DgcA” value in experiment [1] is reported as “completely abolished binding affinity”.

The compound `Cc1ccc(C)c(OCCCC(=O)Nc2ccc(N3CCOCC3)cc2)c1` [Compound 2, 4-(2,5-dimethylphenoxy)-N-(4-morpholin-4-ylphenyl)butanamide] returned an IC50 in experiment [1] (setting [3]) of less than 10 µM. In addition, the IC50 in experiment [1] (IC50 ± SD, Table 3, negative and silent allosteric modulators) was found to be 6.4 ± 0.5 µM. The “% Activity ESI (DGC activity of the enzyme-substrate-inhibitor complex)” value in experiment [1] (Table 3, compound saturation) turned out to be 31.4 ± 1.3%. In experiment [1] (Table 3), this compound had a Hill coeff of 1.36 ± 0.13. In addition, in experiment [1], the “remaining DGC activity of the enzyme-inhibitor-substrate complex” value came to 31.4% and the “mode of modulation of DgcA activity” value is “partial inhibitor”.

Turning to `Nc1nc2c(ncn2[C@@H]2O[C@@H]3COP(=O)(O)O[C@H]4[C@@H](O)[C@H](n5cnc6c(=O)[nH]c(N)nc65)O[C@@H]4COP(=O)(O)O[C@H]3[C@H]2O)c(=O)[nH]1` [c-di-GMP, cyclic diguanosine monophosphate], the Kd in experiment [2] (read-out: binding constant (KD) of the biosensor for c-di-GMP, 25°C) is 0.198 µM.

For `Nc1nc2c(ncn2[C@@H]2O[C@@H]3COP(=O)(O)O[C@H]3[C@H]2O)c(=O)[nH]1` [cyclic GMP], the “biosensor FRET response” value in experiment [2] is “no detectable response”.

Turning to `Nc1nc2c(ncn2[C@@H]2O[C@H](COP(=O)(O)OP(=O)(O)OP(=O)(O)O)[C@@H](O)[C@H]2O)c(=O)[nH]1` [guanosine 5-triphosphate], the “biosensor FRET response” value in experiment [2] is reported as “no detectable response”.
